Laboratory results reported in patent publication EP0517371B1, “Hair growth composition containing citric acid esters” (UNILEVER PLC, priority 1991, dated 1992).
Counter-ions that a name gives are not always drawn.

Tested on: albino rats
Experiment: Rat hair growth trial (plucked hair at end of G-2 anagen after topical application)
Format: in vivo
Details: for LENGTH (length of hair) / WT/AREA (weight of hair per unit area of skin): G-2 anagen, topical twice daily, 6 rats per group, TBC 5% by weight in vanishing cream base, minoxidil 2% by weight in 65% v/v aqueous ethanol
Protocol: The effect of esters of citric acid on hair growth was assessed using albino rats as an animal model. The rats were chosen from as few litters as possible and were each approximately 27-30 days of age at the start of the trial. Each rat was housed individually to prevent licking.
In each comparison, 6 rats were used in each group and hair growth was assessed as follows: A small patch of normal skin (3cm x 3cm) on the upper back of each rat was selected and hairs were plucked from this area at the start of the trial (G-1 telogen). Test materials or control in a vanishing cream base or an alcoholic lotion, as appropriate, were then applied twice daily until the end of the next anagen, i.e. after a further 20 days from the start of trial (G-2 anagen). Each application of lotion amounted to about 50 mg.
At the end of G2-anagen, hair was plucked again from the same dorsal area, and this was used for measurement of: • i) weight of hair per unit area of skin, • ii) length of hair, and • iii) diameter of hair measured microscopically.
This procedure was employed to compare the effect of topical application to the rat model of a known hair growth promoter, namely minoxidil and a test material as used in accordance with the invention, namely tri-n-butyl citrate.
In this experiment minoxidil was employed at a concentration of 2% by weight in 65% v/v aqueous ethanol and tri-n-butyl citrate was employed at a concentration of 5% by weight in a vanishing cream base.

[1] = end of G-2 anagen, versus control (vanishing cream base)

| SMILES | LENGTH (length of hair) [mm] | WT/AREA (weight of hair per unit area of skin) [mg/cm2] | hair diameter, comparison in words [1] | length of hair, comparison in words [1] | weight of plucked hair per unit area, comparison in words [1] |
| --- | --- | --- | --- | --- | --- |
| CCCCOC(=O)CC(O)(CC(=O)OCCCC)C(=O)OCCCC [TBC, tri-n-butyl citrate] | 10.74 ± 1.16 | 17.24 ± 0.97 | similar | marked increase over both control and minoxidil | marked increase over the control |
| Nc1cc(N2CCCCC2)nc(N)[n+]1[O-] [Minoxidil, reference compound] | 8.85 ± 0.42 | 16.27 ± 0.97 |  |  |  |
